Reference: PubChem BioAssay (NCI)
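Where inhibition never reached the appropriate level, the endpoint shown equals the highest concentration tested. Otherwise, values were interpolated linearly from a five-concentration, 48-hour dose response in 96-well plates. At the TGI there is no net growth.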

What was measured:
Experiment in all cases: NCI tumour cell line growth inhibition, 48 h
786-0 renal = tested on: 786-0 renal
A549 NSCLC = tested on: A549 NSCLC
ACHN renal = tested on: ACHN renal
BT-549 breast = tested on: BT-549 breast
CCRF-CEM leukemia = tested on: CCRF-CEM leukemia
COLO 205 colon = tested on: COLO 205 colon
DU-145 prostate = tested on: DU-145 prostate
EKVX NSCLC = tested on: EKVX NSCLC
HCT-116 colon = tested on: HCT-116 colon
HCT-15 colon = tested on: HCT-15 colon
HL-60(TB) leukemia = tested on: HL-60(TB) leukemia
HOP-62 NSCLC = tested on: HOP-62 NSCLC
HOP-92 NSCLC = tested on: HOP-92 NSCLC
HT29 colon = tested on: HT29 colon
IGROV1 ovarian = tested on: IGROV1 ovarian
K-562 leukemia = tested on: K-562 leukemia
KM12 colon = tested on: KM12 colon
LOX IMVI melanoma = tested on: LOX IMVI melanoma
M14 melanoma = tested on: M14 melanoma
MALME-3M melanoma = tested on: MALME-3M melanoma
MCF7 breast = tested on: MCF7 breast
MDA-MB-231 breast = tested on: MDA-MB-231 breast
MDA-N = tested on: MDA-N
NCI-H226 lung = tested on: NCI-H226 lung
NCI-H23 lung = tested on: NCI-H23 lung
NCI-H460 lung = tested on: NCI-H460 lung
NCI/ADR-RES ovarian = tested on: NCI/ADR-RES ovarian
OVCAR-3 ovarian = tested on: OVCAR-3 ovarian
OVCAR-5 ovarian = tested on: OVCAR-5 ovarian
OVCAR-8 ovarian = tested on: OVCAR-8 ovarian
PC-3 prostate = tested on: PC-3 prostate
RPMI-8226 leukemia = tested on: RPMI-8226 leukemia
RXF 393 renal = tested on: RXF 393 renal
SF-268 CNS = tested on: SF-268 CNS
SF-295 CNS = tested on: SF-295 CNS
SF-539 CNS = tested on: SF-539 CNS
SK-MEL-2 melanoma = tested on: SK-MEL-2 melanoma
SK-MEL-28 melanoma = tested on: SK-MEL-28 melanoma
SK-MEL-5 melanoma = tested on: SK-MEL-5 melanoma
SK-OV-3 ovarian = tested on: SK-OV-3 ovarian
SN12C renal = tested on: SN12C renal
SNB-19 CNS = tested on: SNB-19 CNS
SR leukemia = tested on: SR leukemia
SW-620 colon = tested on: SW-620 colon
T-47D breast = tested on: T-47D breast
TK-10 renal = tested on: TK-10 renal
U251 CNS = tested on: U251 CNS
UACC-257 melanoma = tested on: UACC-257 melanoma
UACC-62 melanoma = tested on: UACC-62 melanoma
UO-31 renal = tested on: UO-31 renal
A498 renal = tested on: A498 renal
CAKI-1 renal = tested on: CAKI-1 renal
HCC-2998 colon = tested on: HCC-2998 colon
HS 578T breast = tested on: HS 578T breast
MOLT-4 leukemia = tested on: MOLT-4 leukemia
NCI-H522 lung = tested on: NCI-H522 lung
OVCAR-4 ovarian = tested on: OVCAR-4 ovarian
SNB-75 CNS = tested on: SNB-75 CNS

`COc1ccc(/C=C2\CSC/C(=C\c3ccc(OC)c(OC)c3OC)C2=O)c(OC)c1OC` was tested. Which TGI (786-0 renal) did it give?
The TGI was 48.1 µM.

What about the TGI (A549 NSCLC) of the same compound?
The TGI was greater than 100 µM.

And the TGI (ACHN renal)?
Its TGI is 52.9 µM.

And the TGI (BT-549 breast)?
The TGI was greater than 100 µM.

What about the TGI (CCRF-CEM leukemia) of the same compound?
The TGI was greater than 100 µM.

What about the TGI (COLO 205 colon) of the same compound?
Its TGI is greater than 100 µM.

What about the TGI (DU-145 prostate) of the same compound?
Its TGI is greater than 100 µM.

What about the TGI (EKVX NSCLC) of the same compound?
Its TGI is greater than 100 µM.

What about the TGI (HCT-116 colon) of the same compound?
The TGI was 39 µM.

And the TGI (HCT-15 colon)?
The TGI was 74.1 µM.

What about the TGI (HL-60(TB) leukemia) of the same compound?
Its TGI is 72.1 µM.

What about the TGI (HOP-62 NSCLC) of the same compound?
Its TGI is greater than 100 µM.

And the TGI (HOP-92 NSCLC)?
Its TGI is 96.1 µM.

And the TGI (HT29 colon)?
Its TGI is greater than 100 µM.

What about the TGI (IGROV1 ovarian) of the same compound?
The TGI was greater than 100 µM.

What about the TGI (K-562 leukemia) of the same compound?
The TGI was greater than 100 µM.

And the TGI (KM12 colon)?
The TGI was greater than 100 µM.

What about the TGI (LOX IMVI melanoma) of the same compound?
The TGI was 83.3 µM.

What about the TGI (M14 melanoma) of the same compound?
The TGI was 40.2 µM.

What about the TGI (MALME-3M melanoma) of the same compound?
Its TGI is 27.6 µM.

What about the TGI (MCF7 breast) of the same compound?
The TGI was greater than 100 µM.

And the TGI (MDA-MB-231 breast)?
Its TGI is greater than 100 µM.

And the TGI (MDA-N)?
Its TGI is greater than 100 µM.

And the TGI (NCI-H226 lung)?
The TGI was greater than 100 µM.

What about the TGI (NCI-H23 lung) of the same compound?
Its TGI is greater than 100 µM.

What about the TGI (NCI-H460 lung) of the same compound?
The TGI was greater than 100 µM.

And the TGI (NCI/ADR-RES ovarian)?
Its TGI is greater than 100 µM.

What about the TGI (OVCAR-3 ovarian) of the same compound?
The TGI was greater than 100 µM.

What about the TGI (OVCAR-5 ovarian) of the same compound?
The TGI was greater than 100 µM.

What about the TGI (OVCAR-8 ovarian) of the same compound?
Its TGI is 80.8 µM.

What about the TGI (PC-3 prostate) of the same compound?
Its TGI is greater than 100 µM.

And the TGI (RPMI-8226 leukemia)?
The TGI was 67.3 µM.

And the TGI (RXF 393 renal)?
The TGI was 53.7 µM.

And the TGI (SF-268 CNS)?
The TGI was greater than 100 µM.

What about the TGI (SF-295 CNS) of the same compound?
The TGI was 99.6 µM.

What about the TGI (SF-539 CNS) of the same compound?
Its TGI is 88.6 µM.

What about the TGI (SK-MEL-2 melanoma) of the same compound?
Its TGI is greater than 100 µM.

What about the TGI (SK-MEL-28 melanoma) of the same compound?
Its TGI is greater than 100 µM.

What about the TGI (SK-MEL-5 melanoma) of the same compound?
Its TGI is 88.6 µM.

What about the TGI (SK-OV-3 ovarian) of the same compound?
The TGI was greater than 100 µM.

And the TGI (SN12C renal)?
The TGI was 78.2 µM.

And the TGI (SNB-19 CNS)?
Its TGI is greater than 100 µM.

What about the TGI (SR leukemia) of the same compound?
Its TGI is 80.4 µM.

What about the TGI (SW-620 colon) of the same compound?
Its TGI is 58.6 µM.

What about the TGI (T-47D breast) of the same compound?
The TGI was greater than 100 µM.

And the TGI (TK-10 renal)?
The TGI was greater than 100 µM.

And the TGI (U251 CNS)?
The TGI was greater than 100 µM.

What about the TGI (UACC-257 melanoma) of the same compound?
Its TGI is greater than 100 µM.

What about the TGI (UACC-62 melanoma) of the same compound?
The TGI was 30.4 µM.

What about the TGI (UO-31 renal) of the same compound?
The TGI was greater than 100 µM.

Which results are given for `Cc1ccc(/C=C/C(=O)c2c([O-])on[n+]2-c2ccccc2)cc1`?
TGI (786-0 renal): 3.78 µM; TGI (A498 renal): 17.9 µM; TGI (A549 NSCLC): 25 µM; TGI (ACHN renal): 3.55 µM; TGI (BT-549 breast): 6.09 µM; TGI (CAKI-1 renal): 3.87 µM; TGI (CCRF-CEM leukemia): > 100 µM; TGI (COLO 205 colon): 7.35 µM; TGI (DU-145 prostate): 8.41 µM; TGI (EKVX NSCLC): 14.6 µM; TGI (HCC-2998 colon): 4.15 µM; TGI (HCT-116 colon): 3.65 µM; TGI (HCT-15 colon): 4.68 µM; TGI (HL-60(TB) leukemia): 6.55 µM; TGI (HOP-62 NSCLC): 24.9 µM; TGI (HOP-92 NSCLC): 16.8 µM; TGI (HS 578T breast): > 25.8 µM; TGI (HT29 colon): 3.84 µM; TGI (IGROV1 ovarian): 8.67 µM; TGI (K-562 leukemia): > 100 µM; TGI (KM12 colon): 7.69 µM; TGI (LOX IMVI melanoma): 3.74 µM; TGI (M14 melanoma): 5.98 µM; TGI (MALME-3M melanoma): 98.3 µM; TGI (MCF7 breast): 19 µM; TGI (MDA-MB-231 breast): > 75.2 µM; TGI (MDA-N): > 26.3 µM; TGI (MOLT-4 leukemia): 6.64 µM; TGI (NCI-H226 lung): > 45.6 µM; TGI (NCI-H23 lung): 17.5 µM; TGI (NCI-H460 lung): 6.38 µM; TGI (NCI-H522 lung): 8.06 µM; TGI (NCI/ADR-RES ovarian): 7.11 µM; TGI (OVCAR-3 ovarian): 6.92 µM; TGI (OVCAR-4 ovarian): > 21.1 µM; TGI (OVCAR-5 ovarian): 15.5 µM; TGI (OVCAR-8 ovarian): 4.05 µM; TGI (PC-3 prostate): 17.2 µM; TGI (RPMI-8226 leukemia): 6.35 µM; TGI (RXF 393 renal): 3.65 µM; TGI (SF-268 CNS): > 37.5 µM; TGI (SF-295 CNS): > 46.4 µM; TGI (SF-539 CNS): 12.7 µM; TGI (SK-MEL-2 melanoma): 5.39 µM; TGI (SK-MEL-28 melanoma): 5.75 µM; TGI (SK-MEL-5 melanoma): > 32.5 µM; TGI (SK-OV-3 ovarian): > 100 µM; TGI (SN12C renal): 31.3 µM; TGI (SNB-19 CNS): > 33.5 µM; TGI (SNB-75 CNS): 4.87 µM; TGI (SR leukemia): > 27.5 µM; TGI (T-47D breast): 9.49 µM; TGI (TK-10 renal): 10.3 µM; TGI (U251 CNS): 10.7 µM; TGI (UACC-257 melanoma): 16 µM; TGI (UACC-62 melanoma): 3.12 µM; TGI (UO-31 renal): 6.24 µM
